# Where two headings read alike, the source gives them in different places. Square brackets hold non-standard residues; d marks the D form. Peptide text beside a SMILES is read from it. * marks the point of attachment. Tle = CC(C)(C)[C@H](N)C(=O)O; Cbz = O=C(OCc1ccccc1)*; Bn = c1ccc(C*)cc1; Ms = CS(=O)(=O)*
# Legend:
# Type in all cases: biochemical
# [1] = biological target: T1, Recombinant human calpain I (Homo sapiens, UniProt P07384); test: Inhibition of calpain I activity; settings: Table III
# T1 construct: made in house
# T1 sequence (P07384 1-714): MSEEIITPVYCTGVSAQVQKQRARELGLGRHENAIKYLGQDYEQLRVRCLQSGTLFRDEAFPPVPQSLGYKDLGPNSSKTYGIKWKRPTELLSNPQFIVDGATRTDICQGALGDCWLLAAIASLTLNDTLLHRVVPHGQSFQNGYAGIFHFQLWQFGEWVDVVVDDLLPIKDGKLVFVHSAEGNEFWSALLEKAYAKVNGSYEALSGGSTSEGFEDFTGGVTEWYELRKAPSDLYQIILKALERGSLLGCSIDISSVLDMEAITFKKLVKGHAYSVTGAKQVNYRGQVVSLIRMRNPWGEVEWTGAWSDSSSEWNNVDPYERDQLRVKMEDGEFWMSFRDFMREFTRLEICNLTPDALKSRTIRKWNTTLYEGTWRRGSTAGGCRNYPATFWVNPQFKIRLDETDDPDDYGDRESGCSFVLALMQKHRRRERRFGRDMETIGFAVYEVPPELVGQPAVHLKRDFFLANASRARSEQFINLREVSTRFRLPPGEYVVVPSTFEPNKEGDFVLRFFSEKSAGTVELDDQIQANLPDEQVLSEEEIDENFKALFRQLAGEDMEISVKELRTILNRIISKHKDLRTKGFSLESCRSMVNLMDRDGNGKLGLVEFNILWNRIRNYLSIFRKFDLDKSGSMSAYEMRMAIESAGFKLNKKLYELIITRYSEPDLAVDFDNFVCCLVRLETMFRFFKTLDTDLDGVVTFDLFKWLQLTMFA
# Procedure: To evaluate inhibitory activity, stock solutions (40 times concentrated) of exemplary compounds of the invention were prepared in 100% anhydrous DMSO and 5 μL of each inhibitor preparation were aliquoted into each of three wells of a 96-well plate. Recombinant human calpain I, prepared by the method of Meyer et al. (Biochem. […] To start the reaction, 20 μL of 50 mM CaCl2 in assay buffer was added to all wells of the plate, excepting three, which were used as background signal baseline controls. Substrate hydrolysis was monitored every 5 minutes for a total of 30 minutes. […] Inhibition of calpain I activity was calculated as the percent decrease in the rate of substrate hydrolysis in the presence of inhibitor (VI) relative to the rate in its absence (VO). Comparison between VO and VI was made within the linear range for substrate hydrolysis. For screening, compounds were tested at 10, 1.0, and 0.1 μM. […] The results were plotted as % inhibition versus log inhibitor concentration and the IC50 was calculated from linear regression of the data. Apparent second order rate constants were determined from analysis of reaction progress curves under pseudo-first order conditions. Each determination represents the means of three or more independent single cuvette analyses continually monitored via a Perkin-Elmer LS50B spectrofluorimeter. The rate of inhibition of hydrolysis was obtained by fitting the curve to the exponential equation (1): […]
# [2] = biological target: T2, cathepsin B (Homo sapiens, UniProt P07858); test: Inhibition of cathepsin B; settings: for inhibition at 1 µM: read-out: Cat B % I @ 1 uM; for IC50: read-out: Cat B IC50
# T2 construct: purchased Calbiochem 219364
# Procedure: (§1) Additionally,the order of reagents added to the plate was altered because both enzymes are constitutively active. Following inhibitor addition to the plates, appropriate 2× concentrated stock dilutions of the enzyme preparations were made in assay buffer and 100 μl added to each well. The assay was initiated by addition of 100 μl of 2× concentrated stock dilution of substrate in assay buffer.
# [3] = biological target: T3, cathepsin L (Homo sapiens, UniProt P07711); test: Inhibition of cathepsin L; settings: for inhibition at 1 µM: read-out: Cat L % I @ 1 uM
# T3 construct: purchased Calbiochem 219402
# T3 sequence (P07711 114-288 limits assumed): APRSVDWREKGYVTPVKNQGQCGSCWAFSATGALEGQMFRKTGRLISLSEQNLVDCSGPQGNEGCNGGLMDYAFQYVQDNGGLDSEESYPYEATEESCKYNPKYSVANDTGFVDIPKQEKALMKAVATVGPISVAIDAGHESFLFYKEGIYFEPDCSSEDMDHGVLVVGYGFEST
# T3 sequence (P07711 292-333 limits assumed): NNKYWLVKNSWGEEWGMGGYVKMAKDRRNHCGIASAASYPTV
# Procedure: as §1
# [4] = biological target: T4, thrombin (Homo sapiens, UniProt P00734); test: Inhibition of thrombin; settings: for inhibition at 10 µM: read-out: Thrombin % I @ 10 uM
# T4 construct: purchased Sigma Chem. Co. T-7009
# [5] = biological target: T5, α-chymotrypsin (Bos taurus, UniProt P00766); test: Inhibition of α-chymotrypsin; settings: for inhibition at 10 µM: read-out: Chymotrypsin % I @ 10 uM
# T5 construct: purchased Sigma Chem. Co. C-3142
# Procedure: Additionally, because α-chymotrypsin is not a calcium sensitive enzyme and is constitutively active, following addition of inhibitor stocks to the 96 well plates, 100 μl of a 2-fold concentrated stock of enzyme in dilution buffer was first added and the reaction started by addition of 100 μl of a 2-fold concentrated stock of substrate in assay buffer. Substrate hydrolysis was monitored every 5 minutes up to 30 minutes using a Fluoroskan II ([…]).
Structure (SMILES),IC50 [1],inhibition at 0.1 µM ([1]; 0.1 uM),"inhibition at 1 µM ([2]; Table III, 1 uM)","inhibition at 1 µM ([3]; Table III, 1 uM)","inhibition at 10 µM ([4]; Table III, 10 uM)","inhibition at 10 µM ([5]; Table III, 10 uM)",inhibition at 1 µM [2],inhibition at 1 µM [3],inhibition at 10 µM [4],inhibition at 10 µM [5],IC50 ([2]; Table III),Calpain % I @ 0.1 uM ([1]; 0.1 uM),"Cat B % I @ 1 uM ([2]; Table III, 1 uM)","Cat L % I @ 1 uM ([3]; Table III, 1 uM)","Thrombin % I @ 10 uM ([4]; Table III, 10 uM)","Chymotrypsin % I @ 10 uM ([5]; Table III, 10 uM)"
CS(=O)(=O)N[C@H](Cc1ccc(OCc2ccccc2)cc1)C(=O)N[C@H](C=O)Cc1ccccc1 [Compound 89] (Ms-[dY](Bn)-Phe-aldehyde),15 nM,82%,100%,97%,0%,4%,–,–,–,–,–,–,–,–,–,–
CC(=O)N[C@H](COCc1ccccc1)C(=O)N[C@H](C=O)Cc1ccccc1 [Compound 42],17 nM,87%,90%,96%,7%,14%,–,–,–,–,–,–,–,–,–,–
CS(=O)(=O)N[C@H](COCc1ccccc1)C(=O)N[C@H](C=O)CCCCNS(=O)(=O)c1ccccc1 [Compound 122],3 nM,98%,100%,100%,0%,13%,–,–,–,–,–,–,–,–,–,–
CS(=O)(=O)N[C@H](COCc1ccccc1)C(=O)N[C@H]1CCCCNC1=O [Compound 126],–,5%,2%,16%,0%,6%,–,–,–,–,–,–,–,–,–,–
CS(=O)(=O)N[C@H](COCc1ccccc1)C(=O)N[C@@H](C=O)Cc1ccccc1 [Compound 84],–,2%,22%,93%,0%,0%,–,–,–,–,–,–,–,–,–,–
CCS(=O)(=O)N[C@H](Cc1ccccc1)C(=O)N[C@H](C=O)Cc1ccccc1 [Compound 60],33 nM,74%,97%,100%,0%,0%,–,–,–,–,–,–,–,–,–,–
CC(C)C[C@@H](NC(=O)OCc1ccccc1)C(=O)N[C@H](C=O)Cc1ccccc1 [Compound 85] (Cbz-[dL]-Phe-aldehyde),110 nM,44%,–,–,–,–,44%,89%,0%,6%,–,–,–,–,–,–
O=C[C@H](Cc1ccccc1)NC(=O)[C@@H](COCc1ccccc1)NS(=O)(=O)c1ccccc1 [Compound 48],31 nM,87%,99%,100%,3%,0%,–,–,–,–,11 nM,–,–,–,–,–
O=C[C@H](Cc1ccccc1)NC(=O)[C@@H](Cc1c[nH]c2ccccc12)NS(=O)(=O)c1cccs1 [Compound 73],14 nM,95%,100%,100%,12%,16%,–,–,–,–,–,–,–,–,–,–
CC(=O)Nc1ccc(S(=O)(=O)N[C@H](COCc2ccccc2)C(=O)N[C@H](C=O)Cc2ccccc2)cc1 [Compound 51],32 nM,92%,100%,100%,21%,3%,–,–,–,–,14 nM,–,–,–,–,–
CC(C)(C)[C@@H](C=O)NC(=O)[C@@H](COCc1ccccc1)NS(C)(=O)=O [Compound 111] (Ms-[dS](Bn)-[Tle]-aldehyde),–,27%,10%,91%,0%,16%,–,–,–,–,–,–,–,–,–,–
O=C[C@H](Cc1ccccc1)NC(=O)[C@@H](Cc1ccccc1)NS(=O)(=O)c1cccs1 [Compound 75],20 nM,91%,100%,99%,10%,2%,–,–,–,–,–,–,–,–,–,–
O=C[C@H](Cc1ccccc1)NC(=O)[C@@H](COCc1ccccc1)NS(=O)(=O)c1ccc(F)cc1 [Compound 46],24 nM,90%,100%,100%,15%,6%,–,–,–,–,–,–,–,–,–,–
"CS(=O)(=O)N1Cc2ccccc2CC1C(=O)N[C@H](C=O)Cc1ccccc1 (single isomer, unassigned) [Compound 96]",174 nM,–,–,–,–,–,–,–,–,–,–,49%,90%,100%,0%,14%
CS(=O)(=O)N[C@H](Cc1ccccc1)C(=O)N[C@H](C=O)Cc1ccccc1 [Compound 70] (Ms-[dF]-Phe-aldehyde),16 nM,85%,90%,100%,0%,12%,–,–,–,–,–,–,–,–,–,–
O=C[C@H](Cc1ccccc1)NC(=O)[C@@H](Cc1c[nH]c2ccccc12)NS(=O)(=O)c1ccccc1 [Compound 71],31 nM,92%,100%,100%,11%,5%,–,–,–,–,–,–,–,–,–,–
O=C[C@H](Cc1ccccc1)NC(=O)[C@@H](COCc1ccccc1)NC(=O)C(c1ccccc1)c1ccccc1 [Compound 45],85 nM,55%,100%,100%,7%,5%,–,–,–,–,–,–,–,–,–,–
O=C[C@H](Cc1ccccc1)NC(=O)[C@H]1CCCN1S(=O)(=O)Cc1ccccc1 [Compound 102],72 nM,63%,69%,73%,7%,0%,–,–,–,–,–,–,–,–,–,–

# — patent US5852007A, “Cysteine and serine protease inhibitors containing D-amino acid at the P2 position, methods of making same, and methods of using same” (priority 1997, dated 1998)
